A compilation of properties of binary mixtures (doi:10.1021/acs.jced.3c00537)

Assay: xn = mol fraction of the nth substance listed
Details: 100 kPa

CCO + COP(=O)([O-])OC.Cn1cc[n+](C)c1
x2 = 0
Details | viscosity [mPa·s]
293.15 K | 1.18
303.15 K | 0.976
313.15 K | 0.815
318.15 K | 0.75
323.15 K | 0.694
333.15 K | 0.603
338.15 K | 0.564

COP(=O)([O-])OC.Cn1cc[n+](C)c1 + CCO
viscosity [mPa·s]
Details | 293.15 K | 298.15 K | 303.15 K | 308.15 K | 313.15 K | 318.15 K | 323.15 K | 328.15 K | 333.15 K | 338.15 K
x1 = 0.1005 | – | 2.91 | – | 2.38 | 2.15 | 1.9 | 1.74 | 1.54 | – | 1.22
x1 = 0.2006 | 6.54 | 5.92 | – | 4.71 | 4.29 | 3.89 | 3.5 | 3.19 | 2.93 | 2.67
x1 = 0.3005 | 13.17 | 11.4 | – | 8.77 | 7.8 | – | – | 5.87 | – | 5.14
x1 = 0.4031 | 24.71 | 20.72 | 17.29 | 14.75 | – | 11.17 | 9.96 | 8.98 | 8.12 | 7.43
x1 = 0.4996 | 42.18 | 33.84 | 27.62 | 22.9 | 19.31 | 16.65 | 14.39 | – | 11.07 | –
x1 = 0.6043 | 70.07 | 54.83 | 43.41 | 35.07 | 28.85 | 24.13 | 20.39 | 17.54 | 15.17 | 13.3
x1 = 0.7009 | 111.3 | – | 64.5 | 50.89 | 40.71 | – | – | 22.99 | – | 16.89
x1 = 0.797 | – | 118.8 | 89.5 | 69.03 | – | 43.34 | – | – | 24.3 | 20.61
x1 = 0.8995 | 235.4 | – | 125.2 | – | 72.72 | 58.89 | – | 36.94 | – | 25.28
x1 = 1 | 331 | 232.5 | 165.8 | – | 93.5 | – | 57.09 | 45.49 | 36.7 | 30.05

CCO + CC[n+]1ccn(C)c1.COP(=O)([O-])OC
x2 = 0
Details | viscosity [mPa·s]
293.15 K | 1.18
303.15 K | 0.976
308.15 K | 0.89
313.15 K | 0.815
318.15 K | 0.75
323.15 K | 0.694
333.15 K | 0.603
338.15 K | 0.564

CC[n+]1ccn(C)c1.COP(=O)([O-])OC + CCO
viscosity [mPa·s]
Details | 293.15 K | 298.15 K | 303.15 K | 308.15 K | 313.15 K | 318.15 K | 323.15 K | 328.15 K | 333.15 K | 338.15 K
x1 = 0.1004 | 3.47 | 3.1 | 2.77 | 2.5 | 2.28 | 2.09 | 1.95 | 1.85 | – | 1.55
x1 = 0.2032 | 7.38 | 6.54 | 5.8 | 5.17 | 4.66 | 4.26 | 3.94 | 3.61 | 3.26 | 3.07
x1 = 0.3007 | 14.45 | 12.4 | – | 9.4 | – | – | 6.75 | 6.22 | 5.73 | 5.32
x1 = 0.3994 | 26.4 | 22.01 | 18.49 | 15.67 | 13.43 | 11.74 | 10.36 | 9.26 | 8.31 | 7.61
x1 = 0.5013 | 46.78 | – | 30.72 | 25.48 | 21.4 | 18.27 | – | 13.67 | 11.97 | 10.68
x1 = 0.5994 | 79.2 | 61.56 | – | 38.81 | – | 26.33 | 22.2 | 19.04 | 16.4 | 14.35
x1 = 0.7006 | – | – | 72.82 | 57.48 | 45.56 | 36.84 | 30.39 | – | – | 18.37
x1 = 0.8011 | 176.7 | – | 106.5 | 80.4 | 62.91 | 48.34 | – | 31.5 | 26.15 | 21.94
x1 = 0.8988 | 241 | 192.2 | 140.5 | 106.5 | 78.6 | 62.43 | 49.31 | 39.47 | 32.04 | –
x1 = 1 | 348 | 247 | 178.9 | – | – | 79.1 | 62.91 | 50.39 | – | 33.59
